Data published in US20220144847A1, “HETEROCYCLIC COMPOUND, PHARMACEUTICAL COMPOSITION COMPRISING SAME, PREPARATION METHOD THEREFOR, AND USE THEREOF” (Sichuan Kelun-Biotech Biopharmaceutical Co., Ltd., priority 2019, published 2022).
Like-named read-outs stand apart in the source and are kept apart here.

Experiments:
RET-V804M = RET-V804M (Homo sapiens, UniProt P07949, V804M); test: RET inhibition experiment (HTRF KinEASE-TK kit), mutant RET-V804M; format: biochemical; conditions: for IC50: read-out: The IC50 (nM) for inhibiting V804M
Sequence of RET-V804M (P07949 29-1114 V804M): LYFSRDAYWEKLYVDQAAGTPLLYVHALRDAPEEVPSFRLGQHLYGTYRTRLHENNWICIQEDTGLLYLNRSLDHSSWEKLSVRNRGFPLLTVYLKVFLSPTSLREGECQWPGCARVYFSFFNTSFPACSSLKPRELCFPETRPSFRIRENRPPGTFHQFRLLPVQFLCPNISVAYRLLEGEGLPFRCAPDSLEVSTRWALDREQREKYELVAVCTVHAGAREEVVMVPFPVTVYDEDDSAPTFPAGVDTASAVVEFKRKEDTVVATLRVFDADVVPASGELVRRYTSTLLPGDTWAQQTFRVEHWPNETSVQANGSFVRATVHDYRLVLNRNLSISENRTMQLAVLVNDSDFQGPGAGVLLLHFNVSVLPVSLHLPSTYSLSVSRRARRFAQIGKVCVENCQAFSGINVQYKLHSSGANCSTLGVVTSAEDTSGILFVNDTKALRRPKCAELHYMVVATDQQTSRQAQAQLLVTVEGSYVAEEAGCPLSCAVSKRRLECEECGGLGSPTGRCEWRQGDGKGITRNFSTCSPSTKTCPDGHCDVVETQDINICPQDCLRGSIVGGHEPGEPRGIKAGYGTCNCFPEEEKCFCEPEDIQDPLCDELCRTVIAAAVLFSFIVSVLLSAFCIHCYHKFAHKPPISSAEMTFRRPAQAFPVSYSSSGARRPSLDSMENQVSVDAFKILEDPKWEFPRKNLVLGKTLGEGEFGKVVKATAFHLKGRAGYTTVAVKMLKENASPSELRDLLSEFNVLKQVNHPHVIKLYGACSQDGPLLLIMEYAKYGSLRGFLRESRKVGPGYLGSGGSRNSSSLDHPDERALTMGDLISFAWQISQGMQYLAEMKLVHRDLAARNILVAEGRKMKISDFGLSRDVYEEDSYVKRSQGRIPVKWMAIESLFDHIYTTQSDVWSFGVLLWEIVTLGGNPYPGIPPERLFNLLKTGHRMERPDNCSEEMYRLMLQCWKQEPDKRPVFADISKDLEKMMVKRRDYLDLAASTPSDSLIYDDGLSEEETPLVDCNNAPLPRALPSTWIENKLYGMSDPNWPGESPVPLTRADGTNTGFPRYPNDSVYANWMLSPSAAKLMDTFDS
Description: Experimental method: According to the instructions of the HTRF KinEASE-TK kit (Cisbio), the compounds of the present disclosure were tested for their inhibitory effects on the activity of wild-type RET enzyme, mutant RET enzyme (RET-V804M, RET-V804L, and RET-M918T) and fusion-type RET enzyme (RET-CCDCl6). After pre-incubation of different RET enzymes and different concentrations of the test compounds at room temperature for 30 min, a substrate and adenosine triphosphate (ATP) were added to initiate the reaction. After incubation at room temperature for 40 min, TK antibody-cryptate and streptavidin-XL665 were added, and the test was performed after incubation at room temperature for 45 min. With the solvent group (DMSO) as the negative control and the buffer group (without RET enzyme) as the blank control, the relative inhibitory activity percentages (i.e., inhibition rates) of different concentrations of the compounds were computed as per the following formula:
(§1) Relative inhibitory activity percentage=1−(compound group of different concentrations−blank control)/(negative control−blank control)*100%
(§2) The relative inhibitory activity percentages of different concentrations of the compounds were plotted with respect to the compound concentrations, and the curve was fitted according to a four-parameter model to compute the IC50 value as per the following formula:
(§3) y=min+(max−min)/(1+(x/IC50)^(−Hillslope))
(§4) where y is the relative inhibitory activity percentage, max is the maximum value of the fitted curve, min is the minimum value of the fitted curve, x is the logarithmic concentration of the compound, and Hillslope is the slope of the curve.

VEGFR2 = VEGFR2 (Homo sapiens, UniProt P35968); test: VEGFR2 inhibition experiment (HTRF KinEASE-TK kit); format: biochemical; conditions: read-out: Inhibition rate on VEGFR2; for inhibition at 0.03 µM: 30 nM; for inhibition at 0.3 µM: 300 nM
Sequence of VEGFR2 (P35968 20-1356, species assumed): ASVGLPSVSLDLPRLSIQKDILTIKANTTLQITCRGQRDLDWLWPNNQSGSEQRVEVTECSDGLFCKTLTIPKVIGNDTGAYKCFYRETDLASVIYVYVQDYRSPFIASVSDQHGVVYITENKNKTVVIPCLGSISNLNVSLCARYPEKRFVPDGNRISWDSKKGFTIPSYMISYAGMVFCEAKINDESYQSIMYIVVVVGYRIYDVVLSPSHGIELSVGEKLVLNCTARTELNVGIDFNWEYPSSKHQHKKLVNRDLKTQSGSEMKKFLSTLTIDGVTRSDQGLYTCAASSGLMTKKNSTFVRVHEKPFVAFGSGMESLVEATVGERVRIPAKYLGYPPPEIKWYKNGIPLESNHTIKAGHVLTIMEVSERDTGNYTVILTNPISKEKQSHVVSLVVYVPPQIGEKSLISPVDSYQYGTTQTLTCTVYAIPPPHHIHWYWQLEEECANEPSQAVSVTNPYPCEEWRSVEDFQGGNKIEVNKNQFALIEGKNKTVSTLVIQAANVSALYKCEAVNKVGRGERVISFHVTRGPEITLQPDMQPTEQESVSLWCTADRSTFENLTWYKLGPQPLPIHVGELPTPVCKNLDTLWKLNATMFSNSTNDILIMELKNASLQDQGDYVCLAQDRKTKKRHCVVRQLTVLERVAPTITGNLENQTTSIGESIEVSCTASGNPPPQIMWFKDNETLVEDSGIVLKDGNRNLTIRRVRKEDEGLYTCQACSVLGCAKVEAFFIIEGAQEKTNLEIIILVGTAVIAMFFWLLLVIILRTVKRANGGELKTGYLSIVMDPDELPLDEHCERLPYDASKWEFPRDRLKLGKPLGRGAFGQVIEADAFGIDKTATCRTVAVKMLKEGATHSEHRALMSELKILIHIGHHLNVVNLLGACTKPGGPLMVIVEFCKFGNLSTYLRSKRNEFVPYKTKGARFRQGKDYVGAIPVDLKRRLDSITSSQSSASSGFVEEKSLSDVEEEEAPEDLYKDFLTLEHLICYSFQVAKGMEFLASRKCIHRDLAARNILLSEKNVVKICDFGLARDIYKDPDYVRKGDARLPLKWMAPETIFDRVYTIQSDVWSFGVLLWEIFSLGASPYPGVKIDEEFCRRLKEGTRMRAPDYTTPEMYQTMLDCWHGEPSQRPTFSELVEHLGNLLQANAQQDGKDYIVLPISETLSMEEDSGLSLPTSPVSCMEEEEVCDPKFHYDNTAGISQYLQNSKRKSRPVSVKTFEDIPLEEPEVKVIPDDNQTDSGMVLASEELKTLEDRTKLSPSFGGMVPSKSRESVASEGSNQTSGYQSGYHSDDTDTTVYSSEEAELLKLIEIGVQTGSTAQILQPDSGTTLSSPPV
Description: Experimental method: According to the instructions of the HTRF KinEASE-TK kit (Cisbio), the compounds of the present disclosure were tested for their inhibitory effects on the VEGFR2 enzyme activity. After pre-incubation of the VEGFR2 enzyme and different concentrations of test compounds at room temperature for 30 min, a substrate and adenosine triphosphate (ATP) were added to initiate the reaction. After incubation at room temperature for 40 min, TK antibody-cryptate and streptavidin-XL665 were added, and the test was performed after incubation at room temperature for 45 min. With the solvent group (DMSO) as the negative control and the buffer group (without VEGFR2 enzyme) as the blank control, the relative inhibitory activity percentages (i.e., inhibition rates) of different concentrations of the compounds were computed as per the following formula:
as §1, §2, §3, §4

[1] = 10 nM (Table 2), read-out: Inhibition rate on RET-V804M
[2] = read-out: Inhibition rate on RET-V804M

Q: Which results are given for `Cc1cc(Nc2cc(C)[nH]n2)nc(-c2ccc(N3CC4CC(C3)N4Cc3ccc(-n4nccc4OC4CCC4)nc3)nc2)n1` [Compound 27, 2-(6-(6-((6-(5-cyclobutoxy-1H-pyrazol-1-yl)pyridin-3-yl)methyl)-3,6-diazabicyclo[3.1.1]heptan-3-yl)pyridin-3-yl)-6-methyl-N-(5-methyl-1H-pyrazol-3-yl)pyrimidin-4-amine]?
A: inhibition at 0.01 µM (RET-V804M; [1]): 87%; inhibition at 0.03 µM (VEGFR2): 23%

Q: What does the source list for `CCOc1ccc(CN2C3CC2CN(c2ccc(-c4nc(C)cc(Nc5cc(C)[nH]n5)n4)cn2)C3)cc1` [Compound 41, 2-(6-(6-(4-ethoxybenzyl)-3,6-diazabicyclo[3.1.1]heptan-3-yl)pyridin-3-yl)-6-methyl-N-(5-methyl-1H-pyrazol-3-yl)pyrimidin-4-amine]?
A: inhibition at 0.01 µM (RET-V804M; [1]): 64%; inhibition at 0.1 µM (VEGFR2; 100 nM): 22%

Q: How did the IC50 (RET-V804M) turn out when `Cc1ccc(OC2CCN(c3ccc(-c4nc(C)cc(Nc5cc(C)[nH]n5)n4)cn3)CC2)cn1` [Compound 119, 6-methyl-N-(5-methyl-1H-pyrazol-3-yl)-2-(6-(4-((6-methylpyridin-3-yl)oxy)piperidin-1-yl)pyridin-3-yl)pyrimidin-4-amine] was run?
A: Its IC50 is 14.2 ± 1.27 nM.

Q: And the inhibition at 0.1 µM (VEGFR2; 100 nM)?
A: The inhibition at 0.1 µM was -7%.

Q: With `Cc1cc(Nc2cc(C)[nH]n2)nc(-c2ccc(N3CC4CC(C3)N4Cc3ccc(-n4nccc4C(C)C)nc3)nc2)n1` [Compound 12, 2-(6-(6-((6-(5-isopropyl-1H-pyrazol-1-yl)pyridin-3-yl)methyl)-3,6-diazabicyclo[3.1.1]heptan-3-yl)pyridin-3-yl)-6-methyl-N-(5-methyl-1H-pyrazol-3-yl)pyrimidin-4-amine] as the compound, how does the IC50 (RET-V804M) read?
A: The IC50 was 6.94 ± 0.78 nM.

Q: What about the inhibition at 0.3 µM (VEGFR2) of the same compound?
A: Its inhibition at 0.3 µM is 62%.

Q: Which inhibition at 0.01 µM (RET-V804M; [1]) does the source give for `Cc1cc(Nc2cc(C)[nH]n2)nc(-c2ccc(N3CC4CC(C3)N4Cc3ccc(-c4cscn4)nc3)nc2)n1` [Compound 129, 6-methyl-N-(5-methyl-1H-pyrazol-3-yl)-2-(6-(6-((6-(thiazol-4-yl)pyridin-3-yl)methyl)-3,6-diazabicyclo[3.1.1]heptan-3-yl)pyridin-3-yl)pyrimidin-4-amine] here?
A: The inhibition at 0.01 µM was 84%.

Q: And the inhibition at 0.03 µM (VEGFR2)?
A: The inhibition at 0.03 µM was 52%.

Q: How did the inhibition at 0.01 µM (RET-V804M; [2]) turn out when `COc1ccc(CN2CCN(c3ccc(-c4nc(C)cc(Nc5cc(C)[nH]n5)n4)cn3)CC2)cc1` [Compound 23, 2-(6-(4-(4-methoxybenzyl)piperazin-1-yl)pyridin-3-yl)-6-methyl-N-(5-methyl-1H-pyrazol-3-yl)pyrimidin-4-amine] was run?
A: The inhibition at 0.01 µM was 47%.

Q: And the inhibition at 0.1 µM (VEGFR2)?
A: The inhibition at 0.1 µM was -10%.

Q: Which IC50 (RET-V804M) does the source give for `Cc1cc(Nc2cc(C)[nH]n2)nc(-c2ccc(N3CC4CC(C3)N4Cc3ccc(-n4nccc4C(C)(C)O)nc3)nc2)n1` [Compound 136, 2-(1-(5-((3-(5-(4-methyl-6-((5-methyl-1H-pyrazol-3-yl)-amino)pyrimidin-2-yl)pyridin-2-yl)-3,6-diazabicyclo[3.1.1]heptan-6-yl)methyl)pyridin-2-yl)-1H-pyrazol-5-yl)propan-2-ol] here?
A: The IC50 was 2.35 ± 0.13 nM.

Q: What about the inhibition at 0.03 µM (VEGFR2) of the same compound?
A: Its inhibition at 0.03 µM is 18%.

Q: `Cc1cc(Nc2cc(C)[nH]n2)nc(-c2ccc(N3CC4CC(C3)N4Cc3ccc(-n4nccc4C)nc3)nc2)n1` [Compound 9, 6-methyl-2-(6-(6-((6-(5-methyl-1H-pyrazol-1-yl)pyridin-3-yl)methyl)-3,6-diazabicyclo[3.1.1]heptan-3-yl)pyridin-3-yl)-N-(5-methyl-1H-pyrazol-3-yl)pyrimidin-4-amine] was tested. Which IC50 (RET-V804M) did it give?
A: The IC50 was 5.43 ± 0.91 nM.

Q: What about the inhibition at 0.3 µM (VEGFR2) of the same compound?
A: The inhibition at 0.3 µM was 69%.

Q: For `Cc1cc(Nc2cc(C)[nH]n2)nc(-c2ccc(N3CC4CC(C3)N4Cc3ccc(-n4cc(F)cn4)nc3)nc2)c1` [Compound 6, 6′-(6-((6-(4-fluoro-1H-pyrazol-1-yl)pyridin-3-yl)methyl)-3,6-diazabicyclo[3.1.1]heptan-3-yl)-4-methyl-N-(5-methyl-1H-pyrazol-3-yl)-[2,3′-dipyridyl]-6-amine], which inhibition at 0.01 µM (RET-V804M; [1]) is on record?
A: The inhibition at 0.01 µM was 83%.

Q: And the inhibition at 0.1 µM (VEGFR2; 100 nM)?
A: The inhibition at 0.1 µM was -11%.

Q: How did the IC50 (RET-V804M) turn out when `Cc1cnn(-c2ccc(CN3C4CC3CN(c3ccc(-c5nc(C)cc(Nc6cc(C)[nH]n6)n5)cn3)C4)cn2)c1` [Compound 62, 6-methyl-2-(6-(6-((6-(4-methyl-1H-pyrazol-1-yl)pyridin-3-yl)methyl)-3,6-diazabicyclo[3.1.1]heptan-3-yl)pyridin-3-yl)-N-(5-methyl-1H-pyrazol-3-yl)pyrimidin-4-amine] was run?
A: The IC50 was 4.53 ± 1.23 nM.

Q: What about the inhibition at 0.1 µM (VEGFR2; 100 nM) of the same compound?
A: The inhibition at 0.1 µM was 62%.

Q: Which inhibition at 0.01 µM (RET-V804M; [1]) does the source give for `Cc1cc(Nc2cc(C)[nH]n2)nc(-c2ccc(N3CC4CC(C3)N4Cc3ccc(-c4cccn4C)nc3)nc2)n1` [Compound 128, 6-methyl-N-(5-methyl-1H-pyrazol-3-yl)-2-(6-(6-((6-(1-methyl-1H-pyrrol-2-yl)pyridin-3-yl)methyl)-3,6-diazabicyclo[3.1.1]heptan-3-yl)pyridin-3-yl)pyrimidin-4-amine] here?
A: The inhibition at 0.01 µM was 48%.

Q: And the inhibition at 0.1 µM (VEGFR2; 100 nM)?
A: The inhibition at 0.1 µM was 20%.

Q: Which inhibition at 0.01 µM (RET-V804M; [1]) does the source give for `Cc1cc(Nc2cc(C)[nH]n2)nc(-c2ccc(N3CC4CC(C3)N4Cc3ccc(Cl)cc3)nc2)n1` [Compound 82, 2-(6-(6-(4-chlorobenzyl)-3,6-diazabicyclo[3.1.1]heptan-3-yl)pyridin-3-yl)-6-methyl-N-(5-methyl-1H-pyrazol-3-yl)pyrimidin-4-amine] here?
A: Its inhibition at 0.01 µM is 43%.

Q: And the inhibition at 0.1 µM (VEGFR2; 100 nM)?
A: Its inhibition at 0.1 µM is 15%.

Q: Which inhibition at 0.01 µM (RET-V804M; [1]) does the source give for `Cc1cc(Nc2cc(C)[nH]n2)nc(-c2ccc(N3CC4CC(C3)N4C(=O)c3ccc(-n4cc(F)cn4)nc3)nc2)n1` [Compound 26, (6-(4-fluoro-1H-pyrazol-1-yl)pyridin-3-yl)(3-(5-(4-methyl-6-((5-methyl-1H-pyrazol-3-yl)-amino)pyrimidin-2-yl)pyridin-2-yl)-3,6-diazabicyclo[3.1.1]heptan-6-yl)methanone] here?
A: Its inhibition at 0.01 µM is 83%.

Q: What about the inhibition at 0.3 µM (VEGFR2) of the same compound?
A: The inhibition at 0.3 µM was 64%.

Q: `Cc1cc(Nc2cc(C)[nH]n2)nc(-c2ccc(N3CC4CC(C3)N4Cc3ccc(-n4cc(C)c(C)n4)nc3)nc2)n1` [Compound 121, 2-(6-(6-((6-(3,4-dimethyl-1H-pyrazol-1-yl)pyridin-3-yl)methyl)-3,6-diazabicyclo[3.1.1]heptan-3-yl)pyridin-3-yl)-6-methyl-N-(5-methyl-1H-pyrazol-3-yl)pyrimidin-4-amine] was tested. Which IC50 (RET-V804M) did it give?
A: Its IC50 is 6.22 ± 1.39 nM.

Q: What about the inhibition at 0.1 µM (VEGFR2; 100 nM) of the same compound?
A: The inhibition at 0.1 µM was 37%.

Q: `Cc1cc(Nc2cc(C)[nH]n2)nc(-c2ccc(N3CC4CC(C3)N4Cc3cnc(C)s3)nc2)n1` [Compound 15, 6-methyl-N-(5-methyl-1H-pyrazol-3-yl)-2-(6-(6-((2-methylthiazol-5-yl)methyl)-3,6-diazabicyclo[3.1.1]heptan-3-yl)pyridin-3-yl)pyrimidin-4-amine] was tested. Which inhibition at 0.1 µM (RET-V804M; 100 nM (Table 2), read-out: Inhibition rate on RET-V804M) did it give?
A: Its inhibition at 0.1 µM is 91%.

Q: And the inhibition at 0.1 µM (VEGFR2; 100 nM)?
A: Its inhibition at 0.1 µM is 29%.

Q: Which inhibition at 0.01 µM (RET-V804M; [1]) does the source give for `Cc1cc(Nc2cc(C)[nH]n2)nc(-c2ccc(N3CC4CC(C3)N4Cc3ccc(-n4cc(F)cn4)cc3)nc2)n1` [Compound 91, 2-(6-(6-(4-(4-fluoro-1H-pyrazol-1-yl)benzyl)-3,6-diazabicyclo[3.1.1]heptan-3-yl)pyridin-3-yl)-6-methyl-N-(5-methyl-1H-pyrazol-3-yl)pyrimidin-4-amine] here?
A: Its inhibition at 0.01 µM is 70%.

Q: What about the inhibition at 0.1 µM (VEGFR2; 100 nM) of the same compound?
A: The inhibition at 0.1 µM was 26%.

Q: How did the inhibition at 0.01 µM (RET-V804M; [2]) turn out when `Cc1ccc(CN2C3CC2CN(c2ccc(-c4nc(C)cc(Nc5cc(C)[nH]n5)n4)cn2)C3)cc1` [Compound 80, 6-methyl-N-(5-methyl-1H-pyrazol-3-yl)-2-(6-(6-(4-methylbenzyl)-3,6-diazabicyclo[3.1.1]heptan-3-yl)pyridin-3-yl)pyrimidin-4-amine] was run?
A: The inhibition at 0.01 µM was 51%.

Q: What about the inhibition at 0.1 µM (VEGFR2) of the same compound?
A: The inhibition at 0.1 µM was -10%.

Q: Which inhibition at 0.01 µM (RET-V804M; [1]) does the source give for `Cc1cc(Nc2cc(C)[nH]n2)nc(-c2ccc(N3CC4CC(C3)N4Cc3ccc(-n4cnc(F)c4)nc3)nc2)n1` [Compound 64, 2-(6-(6-((6-(4-fluoro-1H-imidazol-1-yl)pyridin-3-yl)methyl)-3,6-diazabicyclo[3.1.1]heptan-3-yl)pyridin-3-yl)-6-methyl-N-(5-methyl-1H-pyrazol-3-yl)pyrimidin-4-amine] here?
A: The inhibition at 0.01 µM was 79%.

Q: And the inhibition at 0.1 µM (VEGFR2; 100 nM)?
A: The inhibition at 0.1 µM was 38%.

Q: With `Cc1cc(Nc2cc(C)[nH]n2)nc(-c2ccc(N3CC4CC(C3)N4Cc3ccc(F)cn3)nc2)n1` [Compound 70, 2-(6-(6-((5-fluoropyridin-2-yl)methyl)-3,6-diazabicyclo[3.1.1]heptan-3-yl)pyridin-3-yl)-6-methyl-N-(5-methyl-1H-pyrazol-3-yl)pyrimidin-4-amine] as the compound, how does the IC50 (RET-V804M) read?
A: The IC50 was 41.4 ± 3.73 nM.

Q: What about the inhibition at 0.1 µM (VEGFR2; 100 nM) of the same compound?
A: The inhibition at 0.1 µM was 14%.

Q: `Cc1cc(Nc2cc(C)[nH]n2)nc(-c2ccc(N3CCC(Oc4cncc(F)c4)CC3)nc2)n1` [Compound 29, 2-(6-(4-((5-fluoropyridin-3-yl)oxy)piperidin-1-yl)pyridin-3-yl)-6-methyl-N-(5-methyl-1H-pyrazol-3-yl)pyrimidin-4-amine] was tested. Which inhibition at 0.01 µM (RET-V804M; [1]) did it give?
A: Its inhibition at 0.01 µM is 52%.

Q: And the inhibition at 0.3 µM (VEGFR2)?
A: Its inhibition at 0.3 µM is 47%.
